# Test results as given in patent US9750719B2, “Tetrazole compounds as calcium channel blockers” (CONVERGENCE PHARMACEUTICALS LIMITED, priority 2010, dated 2017).
# Where a name gives a salt, the structure may show the parent alone.
# Target: T1, human Cav2.2 α (α1B) subunit, along with the human β3 and α2δ1 auxiliary subunits (Homo sapiens, UniProt Q00975)
# T1 construct: expressed in transfected cells
# Assay: hCav2.2 assay, IonWorks planar array electrophysiology in stable HEK293 cell line
# Format: cell-based
# Details: inhibition by 50% of current elicited by the 1st depolarising pulse; HEK293 cells; read-out: tonic pIC50 (converted)
# Method: Compounds as defined in the first or second aspect may be tested for in vitro biological activity in the hCav2.2 assay in accordance with the following studies:
# Stable cell lines expressing the human Cav2.2 α (α1B) subunit, along with the human β3 and α2δ1 auxiliary subunits were created following sequential transfection and selection of human embryonic kidney (HEK293) cells. HEK293 cells were cultured in Dulbecco's modified Eagles media/F12 media (Invitrogen, Cat #041-95750V) containing 10% fetal bovine serum, with added L-glutamine (2 mM; Invitrogen, Cat #25030-024) and non-essential amino acids (5%; Invitrogen, Cat #11140-035). Initially HEK293 cells were transfected with two plasmid vectors for expression of the hCav2.2 α subunit (pCIN5-hCav2.2 which carries a neomycin resistance marker) and the hCav β3 subunit (pCIH-hCav β3 which carries a hygromycin resistance marker). Clonal cell lines were isolated following selection in media supplemented with 0.4 mg ml^−1 Geneticin G418 (Invitrogen, Cat #10131-027) and 0.1 mg ml^−1 hygromycin (Invitrogen, Cat #10687-010). These clonal cell lines were assessed for Cav2.2 α/β3-mediated current expression using the IonWorks planar array electrophysiology technology (described below). A clonal line was identified that gave a reasonable level of functional Cav2.2 α/β3 current expression. This cell line was transfected with a plasmid vector for expression of the human α2δ1 subunit (pCIP-α2δ1 which carries a puromycin resistance marker) and clonal cell lines isolated following selection in media containing 0.62 μg ml^−1 puromycin (Sigma, Cat #P-7255), in addition to 0.4 mg ml^−1 Geneticin G418 and 0.1 mg ml^−1 hygromycin. Several cell lines were identified that gave robust levels of Cav2.2 α/β3/α2δ1-mediated current expression and one of these was selected for compound profiling. Expression of all three subunits within this cell line was continuously maintained by the inclusion of G418 (0.4 mg ml^−1), hygromycin (0.1 mg ml^−1) and puromycin (0.62 μg ml^−1). Cells were maintained at 37° C. in a humidified environment containing 5% CO2 in air. Cells were liberated from the T175 culture flasks for passage and harvesting using TrpLE (Invitrogen, Cat #12604-013).
# Cells were grown to 30-60% confluence in T175 flasks and maintained at 30° C. for 24 hrs prior to recording. Cells were lifted by removing the growth media, washing with Ca^2+ free PBS (Invitrogen, Cat #14190-094) and incubating with 3 ml of warmed (37° C.) TrpLE (Invitrogen, Cat #12604-013) for 6 minutes. Lifted cells were suspended in 10 ml of extracellular buffer. Cell suspension was then placed into a 15 ml tube and centrifuged for 2 minutes at 700 rpm. After centrifugation, the supernatant was removed and the cell pellet was resuspended in 4.5 ml of extracellular solution.
# Currents were recorded at room temperature (21-23° C.) using the IonWorks planar array electrophysiology technology (Molecular Devices Corp.). Stimulation protocols and data acquisition were carried out using a microcomputer (Dell Pentium 4). In order to determine planar electrode hole resistances (Rp), a 10 mV, 160 ms potential difference was applied across each hole. These measurements were performed before cell addition. After cell addition a seal test was performed prior to antibiotic (amphotericin) circulation to achieve intracellular access. Leak subtraction was conducted in all experiments by applying a 160 ms hyperpolarizing (10 mV) prepulse 200 ms before the test pulses to measure leak conductance. Test pulses stepping from the holding potential (VH) of −90 mV to +10 mV were applied for 20 ms and repeated 10 times at a frequency of 10 Hz. In all experiments, the test pulse protocol was performed in the absence (pre-read) and presence (post-read) of a compound. Pre- and post-reads were separated by a compound addition followed by a 3-3.5 min incubation. […]
# T1 sequence (Q00975 whole entry): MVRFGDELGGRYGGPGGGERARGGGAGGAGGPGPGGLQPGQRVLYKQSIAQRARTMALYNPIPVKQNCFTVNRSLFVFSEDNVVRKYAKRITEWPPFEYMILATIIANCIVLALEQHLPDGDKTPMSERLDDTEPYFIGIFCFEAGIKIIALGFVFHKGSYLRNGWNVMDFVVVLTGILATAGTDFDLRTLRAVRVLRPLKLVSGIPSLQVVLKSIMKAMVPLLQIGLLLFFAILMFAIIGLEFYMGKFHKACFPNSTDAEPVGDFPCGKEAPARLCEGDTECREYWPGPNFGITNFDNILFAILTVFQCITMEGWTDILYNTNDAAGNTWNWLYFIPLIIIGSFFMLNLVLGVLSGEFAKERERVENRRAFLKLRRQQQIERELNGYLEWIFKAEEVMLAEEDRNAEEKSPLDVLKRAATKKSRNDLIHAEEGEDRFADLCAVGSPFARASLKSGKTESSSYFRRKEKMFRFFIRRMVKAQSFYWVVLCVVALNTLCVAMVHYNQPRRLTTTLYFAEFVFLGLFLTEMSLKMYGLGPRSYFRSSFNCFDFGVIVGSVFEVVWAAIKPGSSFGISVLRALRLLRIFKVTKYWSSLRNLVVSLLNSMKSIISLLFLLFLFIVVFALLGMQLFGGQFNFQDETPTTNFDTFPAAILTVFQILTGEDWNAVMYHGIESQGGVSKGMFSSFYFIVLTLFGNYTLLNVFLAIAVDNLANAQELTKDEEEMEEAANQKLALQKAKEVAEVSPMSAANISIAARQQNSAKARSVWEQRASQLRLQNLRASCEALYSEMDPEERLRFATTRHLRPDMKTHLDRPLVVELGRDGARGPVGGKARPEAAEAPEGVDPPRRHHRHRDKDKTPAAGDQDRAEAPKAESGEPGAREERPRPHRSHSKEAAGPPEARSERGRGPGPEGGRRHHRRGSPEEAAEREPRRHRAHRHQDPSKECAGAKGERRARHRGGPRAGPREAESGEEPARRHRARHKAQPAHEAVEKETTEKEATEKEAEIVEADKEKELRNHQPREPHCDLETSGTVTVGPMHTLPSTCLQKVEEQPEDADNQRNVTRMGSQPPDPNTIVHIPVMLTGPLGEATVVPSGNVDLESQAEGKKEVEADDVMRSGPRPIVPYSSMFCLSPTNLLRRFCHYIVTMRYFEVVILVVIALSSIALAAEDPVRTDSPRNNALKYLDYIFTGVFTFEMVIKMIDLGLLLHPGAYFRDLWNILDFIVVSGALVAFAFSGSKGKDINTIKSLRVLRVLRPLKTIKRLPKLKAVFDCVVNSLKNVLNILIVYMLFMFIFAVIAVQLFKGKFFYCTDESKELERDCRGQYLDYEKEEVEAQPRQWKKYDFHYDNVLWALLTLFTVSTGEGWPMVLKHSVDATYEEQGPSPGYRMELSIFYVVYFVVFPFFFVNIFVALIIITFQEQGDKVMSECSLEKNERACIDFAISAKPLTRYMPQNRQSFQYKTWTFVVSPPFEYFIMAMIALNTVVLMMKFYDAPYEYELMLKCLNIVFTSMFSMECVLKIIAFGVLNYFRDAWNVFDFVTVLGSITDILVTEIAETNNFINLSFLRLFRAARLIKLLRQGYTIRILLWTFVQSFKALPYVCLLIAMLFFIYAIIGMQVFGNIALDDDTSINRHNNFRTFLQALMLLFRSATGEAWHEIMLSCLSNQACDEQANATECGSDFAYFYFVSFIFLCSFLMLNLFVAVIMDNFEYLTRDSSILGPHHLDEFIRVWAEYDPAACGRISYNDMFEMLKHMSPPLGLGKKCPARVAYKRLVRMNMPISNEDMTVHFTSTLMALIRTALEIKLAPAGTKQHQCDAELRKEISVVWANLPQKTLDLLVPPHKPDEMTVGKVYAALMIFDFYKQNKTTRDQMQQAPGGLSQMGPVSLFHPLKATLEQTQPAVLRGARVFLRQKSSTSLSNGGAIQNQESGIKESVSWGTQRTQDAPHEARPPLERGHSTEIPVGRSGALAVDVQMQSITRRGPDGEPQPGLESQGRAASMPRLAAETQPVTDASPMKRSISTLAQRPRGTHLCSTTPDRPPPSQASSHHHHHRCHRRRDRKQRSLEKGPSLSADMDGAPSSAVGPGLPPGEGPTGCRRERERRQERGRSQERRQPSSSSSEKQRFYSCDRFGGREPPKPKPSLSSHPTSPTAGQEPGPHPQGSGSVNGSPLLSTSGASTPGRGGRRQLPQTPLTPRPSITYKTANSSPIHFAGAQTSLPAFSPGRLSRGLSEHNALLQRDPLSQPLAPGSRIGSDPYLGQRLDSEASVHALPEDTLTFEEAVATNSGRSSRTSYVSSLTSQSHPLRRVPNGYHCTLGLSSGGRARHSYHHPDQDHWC
# T1 sequence (P54284 whole entry partner): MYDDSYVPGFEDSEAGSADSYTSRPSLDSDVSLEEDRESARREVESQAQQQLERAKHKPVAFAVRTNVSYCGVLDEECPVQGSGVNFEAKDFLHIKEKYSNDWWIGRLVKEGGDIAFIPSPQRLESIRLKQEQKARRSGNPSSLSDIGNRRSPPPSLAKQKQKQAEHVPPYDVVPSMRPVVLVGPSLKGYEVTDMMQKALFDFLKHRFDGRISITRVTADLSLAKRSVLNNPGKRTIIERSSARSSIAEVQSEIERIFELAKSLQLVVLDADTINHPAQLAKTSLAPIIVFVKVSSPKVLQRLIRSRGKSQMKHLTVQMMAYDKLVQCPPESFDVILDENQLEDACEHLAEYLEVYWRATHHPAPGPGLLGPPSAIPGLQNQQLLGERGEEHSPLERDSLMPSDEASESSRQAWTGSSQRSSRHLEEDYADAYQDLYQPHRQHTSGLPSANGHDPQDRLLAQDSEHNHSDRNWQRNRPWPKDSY
# T1 sequence (P54289 25-946 partner limits assumed): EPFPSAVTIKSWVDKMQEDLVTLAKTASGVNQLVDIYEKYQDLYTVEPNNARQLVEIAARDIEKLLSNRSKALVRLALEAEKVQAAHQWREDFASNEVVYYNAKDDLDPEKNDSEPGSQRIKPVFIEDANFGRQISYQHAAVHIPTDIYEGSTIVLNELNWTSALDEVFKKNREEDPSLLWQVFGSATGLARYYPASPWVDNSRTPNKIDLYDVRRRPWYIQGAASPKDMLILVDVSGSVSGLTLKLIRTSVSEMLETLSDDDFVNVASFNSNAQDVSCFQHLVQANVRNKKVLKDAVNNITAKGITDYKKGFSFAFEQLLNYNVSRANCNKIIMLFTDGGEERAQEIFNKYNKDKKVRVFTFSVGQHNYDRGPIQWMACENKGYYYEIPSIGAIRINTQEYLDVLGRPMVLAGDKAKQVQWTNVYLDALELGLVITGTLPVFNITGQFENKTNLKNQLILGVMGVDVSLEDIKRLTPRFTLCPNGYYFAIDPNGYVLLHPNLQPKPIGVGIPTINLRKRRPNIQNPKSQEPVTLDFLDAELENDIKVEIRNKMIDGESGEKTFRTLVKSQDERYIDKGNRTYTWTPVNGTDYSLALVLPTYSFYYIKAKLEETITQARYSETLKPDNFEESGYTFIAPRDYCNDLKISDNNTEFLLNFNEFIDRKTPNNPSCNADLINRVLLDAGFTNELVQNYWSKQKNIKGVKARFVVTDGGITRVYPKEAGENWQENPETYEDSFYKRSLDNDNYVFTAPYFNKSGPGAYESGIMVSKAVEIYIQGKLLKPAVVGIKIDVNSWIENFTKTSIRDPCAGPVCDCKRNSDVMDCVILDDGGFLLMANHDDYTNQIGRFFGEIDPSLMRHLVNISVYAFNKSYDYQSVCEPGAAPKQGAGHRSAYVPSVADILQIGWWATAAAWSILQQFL
# T1 sequence (P54289 947-1103 partner limits assumed): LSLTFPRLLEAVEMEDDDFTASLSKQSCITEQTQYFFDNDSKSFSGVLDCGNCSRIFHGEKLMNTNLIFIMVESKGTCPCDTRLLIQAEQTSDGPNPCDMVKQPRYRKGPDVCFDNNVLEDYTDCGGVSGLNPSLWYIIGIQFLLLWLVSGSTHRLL
row,Structure (SMILES),IC50
1,"C[C@@H]1CN(Cc2nnnn2-c2cccc(C(F)(F)F)c2)C[C@H](C)O1 [Compound 3, (cis)-2,6-Dimethyl-4-({1-[3-(trifluoromethyl)phenyl]-1H-tetrazol-5-yl}methyl)morpholine]",≤ 31.6 µM
2,"C[C@@H]1CN(Cc2nnnn2-c2ccc(Cl)cc2)C[C@H](C)O1 [Compound 13, (cis)-4-{[1-(4-Chlorophenyl)-1H-tetrazol-5-yl]methyl}-2,6-dimethylmorpholine]",≤ 31.6 µM
3,"FC(F)(F)c1cccc(-n2nnnc2CN2CCOCC2)c1 [Compound 19, 4-({1-[3-(Trifluoromethyl)phenyl]-1H-tetrazol-5-yl}methyl)morpholine]",≤ 31.6 µM
4,"Clc1ccc(-n2nnnc2CN2CCOCC2)cc1Cl [Compound 21, 4-{[1-(3,4-Dichlorophenyl)-1H-tetrazol-5-yl]methyl}morpholine]",≤ 10 µM
5,"CCCS(=O)(=O)N1CCN(Cc2nnnn2-c2ccc(Cl)cc2)CC1 [Compound 23, 1-{[1-(4-Chlorophenyl)-1H-tetrazol-5-yl]methyl}-4-(propylsulfonyl)piperazine]",≤ 31.6 µM
6,"N#CC1CCN(Cc2nnnn2-c2cccc(C(F)(F)F)c2)C1 (stereo not drawn) [Compound 24, 1-({1-[3-(Trifluoromethyl)phenyl]-1H-tetrazol-5-yl}methyl)-3-pyrrolidinecarbonitrile hydrochloride]",≤ 31.6 µM
7,"CC1(C)COCCN1Cc1nnnn1-c1cccc(C(F)(F)F)c1 [Compound 29, 3,3-Dimethyl-4-({1-[3-(trifluoromethyl)phenyl]-1H-tetrazol-5-yl}methyl)morpholine]",≤ 10 µM
8,"C[C@@H]1CN(Cc2nnnn2-c2ccc(C#N)c(C(F)(F)F)c2)C[C@H](C)O1 [Compound 30, 4-(5-{[cis-2,6-Dimethyl-4-morpholinyl]methyl}-1 H-tetrazol-1-yl)-2-(trifluoromethyl)benzonitrile]",≤ 10 µM
9,"CC1C(=O)N(C)CCN1Cc1nnnn1-c1cccc(C(F)(F)F)c1 (stereo not drawn) [Compound 33, 1,3-Dimethyl-4-({1-[3-(trifluoromethyl)phenyl]-1H-tetrazol-5-yl}methyl)-2-piperazinone]",63.1 µM
10,"N#Cc1ccc(-n2nnnc2CN2CCOCC2)cc1C(F)(F)F [Compound 34, 4-[5-(4-Morpholinylmethyl)-1H-tetrazol-1-yl]-2-(trifluoromethyl)benzonitrile hydrochloride]",≤ 31.6 µM
11,"C[C@@H]1COCCN1Cc1nnnn1-c1ccc(C#N)c(C(F)(F)F)c1 [Compound 41, 4-(5-{[(3R)-3-Methyl-4-morpholinyl]methyl}-1H-tetrazol-1-yl)-2-(trifluoromethyl)benzonitrile]",≤ 3.16 µM
12,"CN1CCN(Cc2nnnn2-c2cccc(C(F)(F)F)c2)CC1(C)C [Compound 45, 1,2,2-Trimethyl-4-({1-[3-(trifluoromethyl)phenyl]-1H-tetrazol-5-yl}methyl)piperazine hydrochloride]",≤ 31.6 µM
13,"CCS(=O)(=O)N1CCN(Cc2nnnn2-c2ccc(C(F)(F)F)cc2)CC1 [Compound 47, 1-(Ethylsulfonyl)-4-({1-[4-(trifluoromethyl)phenyl]-1H-tetrazol-5-yl}methyl)piperazine]",≤ 10 µM
14,"CCS(=O)(=O)N1CCN(Cc2nnnn2-c2cccc(C(F)(F)F)c2)CC1 [Compound 48, 1-(Ethylsulfonyl)-4-({1-[3-(trifluoromethyl)phenyl]-1H-tetrazol-5-yl}methyl)piperazine]",≤ 3.16 µM
15,"C[C@@H]1CN(Cc2nnnn2-c2ccc(Br)cc2Cl)C[C@H](C)O1 [Compound 57, cis-4-{[1-(4-Bromo-2-chlorophenyl)-1H-tetrazol-5-yl]methyl}-2,6-dimethylmorpholine hydrochloride]",≤ 31.6 µM
16,"C[C@@H]1COC[C@H](C)N1Cc1nnnn1-c1cccc(C(F)(F)F)c1 [Compound 64, (cis)-3,5-dimethyl-4-({1-[3-(Trifluoromethyl)phenyl]-1H-tetrazol-5-yl}methyl)morpholine hydrochloride]",≤ 31.6 µM
17,"FC(F)(F)c1cccc(-n2nnnc2CNC2CCCCC2)c1 [Compound 65, N-({1-[3-(Trifluoromethyl)phenyl]-1H-tetrazol-5-yl}methyl)cyclohexanamine hydrochloride]",≤ 31.6 µM
18,"CS(=O)(=O)N1CCN(Cc2nnnn2-c2cccc(C(F)(F)F)c2)CC1 [Compound 72, 1-(Methylsulfonyl)-4-({1-[3-(trifluoromethyl)phenyl]-1H-tetrazol-5-yl}methyl)piperazine]",≤ 10 µM
19,"N#Cc1ccc(-n2nnnc2CN2CCC[C@@H]2C(F)(F)F)cc1 [Compound 73, 4-(5-{[(2R)-2-(Trifluoromethyl)-1-pyrrolidinyl]methyl}-1H-tetrazol-1-yl)benzonitrile]",≤ 31.6 µM
20,"FCC12CCCN1CCN(Cc1nnnn1-c1ccc(C(F)(F)F)cc1)C2 (stereo not drawn) [Compound 77, 8a-(Fluoromethyl)-2-({1-[4-(trifluoromethyl)phenyl]-1H-tetrazol-5-yl}methyl)octahydropyrrolo[1,2-a]pyrazine]",≤ 31.6 µM

# Other lines, results leading:
row,IC50,Structure (SMILES)
1,≤ 31.6 µM,"FC(F)(F)c1ccc(-n2nnnc2CCN2CCOCC2)cc1 [Compound 9, 4-(2-{1-[4-(Trifluoromethyl)phenyl]-1H-tetrazol-5-yl}ethyl)morpholine hydrochloride]"
2,≤ 3.16 µM,"C[C@@H]1COCCN1Cc1nnnn1-c1cccc(C(F)(F)F)c1 [Compound 25, (3R)-3-Methyl-4-({1-[3-(trifluoromethyl)phenyl]-1H-tetrazol-5-yl}methyl)morpholine hydrochloride]"
3,≤ 3.16 µM,"C[C@@H]1COCCN1Cc1nnnn1-c1ccc(C(F)(F)F)cc1 [Compound 28, (3R)-3-Methyl-4-({1-[4-(trifluoromethyl)phenyl]-1H-tetrazol-5-yl}methyl)morpholine hydrochloride]"
4,≤ 10 µM,"C[C@H]1COCCN1Cc1nnnn1-c1ccc(C(F)(F)F)cc1 [Compound 39, (3S)-3-Methyl-4-({1-[4-(trifluoromethyl)phenyl]-1H-tetrazol-5-yl}methyl)morpholine hydrochloride]"
5,≤ 31.6 µM,"C[C@@H]1COCCN1Cc1nnnn1-c1ccc(C(F)(F)F)cn1 [Compound 42, (3R)-3-Methyl-4-({1-[5-(trifluoromethyl)-2-pyridinyl]-1H-tetrazol-5-yl}methyl)morpholine]"
6,≤ 31.6 µM,"CCN1CCN(Cc2nnnn2-c2ccc(C(F)(F)F)cc2)[C@H](C)C1=O [Compound 52, (3R)-1-Ethyl-3-methyl-4-({1-[4-(trifluoromethyl)phenyl]-1H-tetrazol-5-yl}methyl)-2-piperazinone]"
7,≤ 31.6 µM,"C[C@@H]1COCCN1Cc1nnnn1-c1ccc(OC(F)F)cc1 [Compound 54, (3R)-4-[(1-{4-[(Difluoromethyl)oxy]phenyl}-1H-tetrazol-5-yl)methyl]-3-methylmorpholine hydrochloride]"
8,≤ 31.6 µM,"FC(F)(F)c1ccc(-n2nnnc2CN2CCN3CCCC3C2)cc1 (stereo not drawn) [Compound 70, 2-({1-[4-(Trifluoromethyl)phenyl]-1H-tetrazol-5-yl}methyl)octahydropyrrolo[1,2-a]pyrazine di-hydrochloride]"
9,≤ 3.16 µM,"CS(=O)(=O)N1CCN(Cc2nnnn2-c2ccc(C(F)(F)F)cc2)CC1 [Compound 71, 1-(Methylsulfonyl)-4-({1-[4-(trifluoromethyl)phenyl]-1H-tetrazol-5-yl}methyl)piperazine]"
10,≤ 10 µM,"O=C1CCC2CN(Cc3nnnn3-c3ccc(C(F)(F)F)cc3)CCN12 (stereo not drawn) [Compound 74, 2-({1-[4-(Trifluoromethyl)phenyl]-1H-tetrazol-5-yl}methyl)hexahydropyrrolo[1,2-a]pyrazin-6(2H)-one]"
